Patent US10316017B2, “COT modulators and methods of use thereof” (Gilead Sciences, Inc., priority 2015, dated 2019)
pEC50, pIC50: −log10 of the molar value.

Key:
[1] = test system: TNFα production in LPS-stimulated human monocytes; test: Cot Monocyte TNFα Cell Based Assay; conditions: Homo sapiens, Monocyte, TNFα in LPS-stimulated human monocytes; read-out: EC50 TNF
Summary of the method: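 5,000 cells/well; cmpd 1 h, 37 °C, 0.5% DMSO final; LPS 50 pg/ml, 4 h, 37 °C; media TNFα by HTRF sandwich (cryptate/XL665), RT overnight; % control vs unstimulated/stimulated wells.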

[2] = target: T1, human Cot catalytic domain (30-397 amino acids) (Homo sapiens, UniProt P41279); test: High Throughput Cot Biochemical Assay (KinEASE TR-FRET); conditions: Cot KinEASE TR-FRET (HTRF) biochemical assay, 400 μM ATP; read-out: IC50 HTRF
T1 construct: Purified recombinant human Cot catalytic domain (30-397 amino acids) was purchased from Cama Biosciences; purchased Cama Biosciences (so in the source)
Summary of the method: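 First, purified human Cot (aa 30-397) at 5 nM phosphorylates an XL665-labeled STK3 peptide (1 μM) at 400 μM ATP, pH 7.0, 0.1% DMSO. Then a europium-conjugated phospho-specific antibody binds the product, giving the TR-FRET signal.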

T1 sequence (P41279 30-397): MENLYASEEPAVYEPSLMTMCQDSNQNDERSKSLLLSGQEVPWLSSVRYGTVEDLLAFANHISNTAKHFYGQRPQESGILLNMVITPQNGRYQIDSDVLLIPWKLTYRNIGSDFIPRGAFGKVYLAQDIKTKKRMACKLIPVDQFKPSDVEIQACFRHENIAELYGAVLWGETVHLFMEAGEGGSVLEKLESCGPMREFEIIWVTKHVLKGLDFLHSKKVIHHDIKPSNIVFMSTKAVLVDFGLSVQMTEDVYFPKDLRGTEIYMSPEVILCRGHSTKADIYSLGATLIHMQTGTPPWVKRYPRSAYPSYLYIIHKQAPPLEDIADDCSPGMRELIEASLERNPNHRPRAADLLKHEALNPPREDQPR

Row | Compound | pEC50 [1] | pIC50 [2]
1 | N#Cc1cnc2c(Cl)cc(N[C@@H](c3ccc(F)cc3)c3cn(C4CC4)nn3)cc2c1NC(CN1CCOCC1)c1ccccc1 (stereo partly drawn) [Example 322, 8-chloro-6-(((S)-(1-cyclopropyl-1H-1,2,3-triazol-4-yl)(4-fluorophenyl)methyl)amino)-4-((2-morpholino-1-phenylethyl)amino)quinoline-3-carbonitrile] | 6.02 | 6.85
2 | N#Cc1ccccc1[C@H](Nc1cc(Cl)c2ncc(C#N)c(Nc3cnc(F)c(F)c3)c2c1)c1cn(C2CC2)nn1 [Example 325, (S)-8-chloro-6-(((2-cyanophenyl)(1-cyclopropyl-1H-1,2,3-triazol-4-yl)methyl)amino)-4-((5,6-difluoropyridin-3-yl)amino)quinoline-3-carbonitrile] | 6.45 | 8.10
3 | [2H]C(Nc1cc(Cl)c2ncc(C#N)c(N[C@H](CC)c3ccccc3)c2c1)(c1ccccc1Cl)c1nn[nH]c1C (stereo partly drawn) [Example 326, 8-chloro-6-(((2-chlorophenyl) (5-methyl-1H-1,2,3-triazol-4-yl)methyl-d)amino)-4-(((R)-1-phenylpropyl)amino)quinoline-3-carbonitrile] | 5.71 | 6.70
4 | [2H][C@](Nc1cc(Cl)c2ncc(C#N)c(NCC(C)(C)C)c2c1)(c1cccc(C#N)c1)c1cn(-c2cccnc2)nn1 [Example 327, (S)-8-chloro-6-(((3-cyanophenyl)(1-(pyridin-3-yl)-1H-1,2,3-triazo1-4-yl)methyl-d)amino)-4-(neopentylamino)quinoline-3-carbonitrile] | 6.78 | 8.40
5 | N#Cc1ccccc1[C@H](Nc1cc(Cl)c2ncc(C#N)c(Nc3cnc(F)c(F)c3)c2c1)c1c[nH]nn1 [Example 328, (S)-8-chloro-6-(((2-cyanophenyl)(1H-1,2,3-triazol-4-yl)methyl)amino)-4-((5,6-difluoropyridin-3-yl)amino)quinoline-3-carbonitrile] | 5.91 | 7.62
6 | [2H][C@](Nc1cc(Cl)c2ncc(C#N)c(Nc3cnc(F)c(F)c3)c2c1)(c1ccc(F)cc1)c1cnn(CF)n1 [Example 330, (S)-8-chloro-4-((5,6-difluoropyridin-3-yl)amino)-6-(((2-(fluoromethyl)-2H-1,2,3-triazol-4-yl)(4-fluorophenyl)methyl-d)amino)quinoline-3-carbonitrile] | < 5.00 | 5.85
7 | [2H][C@](Nc1cc(Cl)c2ncc(C#N)c(N[C@H](CC#N)c3ccccc3)c2c1)(c1ccc(F)cc1)c1cn(C2CC2)nn1 [Example 331, 8-chloro-4-(((R)-2-cyano-1-phenylethyl)amino)-6-(((S)-(1-cyclopropyl-1H-1,2,3-triazol-4-yl)(4-fluorophenyl)methyl-d)amino)quinoline-3-carbonitrile] | 7.12 | 8.40
8 | [2H][C@](Nc1cc(Cl)c2ncc(C#N)c(NCC3(C)CCOCC3)c2c1)(c1ccc(F)cc1)c1cn(C2CC2)nn1 [Example 333, (S)-8-chloro-6-(((1-cyclopropyl-1H-1,2,3-triazol-4-yl)(4-fluorophenyl)methyl-d)amino)-4-(((4-methyltetrahydro-2H-pyran-4-yl)methyl)amino) quinoline-3-carbonitrile] | 6.59 | 8.05
9 | [2H][C@](Nc1cc(Cl)c2ncc(C#N)c(N[C@@H](CC#N)c3ccccc3)c2c1)(c1ccc(F)cc1)c1cn(C2CC2)nn1 [Example 334, 8-chloro-4-(((S)-2-cyano-1-phenylethyl)amino)-6-(((S)-(1-cyclopropyl-1H-1,2,3-triazol-4-yl)(4-fluorophenyl)methyl-d)amino)quinoline-3-carbonitrile] | < 5.00 | 6.59
10 | N#Cc1cnc2c(Cl)cc(N[C@@H](c3ccc(F)cc3)c3cn(-c4ccccc4C(F)(F)F)nn3)cc2c1Nc1cnc(F)c(F)c1 [Example 336, (S)-8-chloro-4-((5,6-difluoropyridin-3-yl)amino)-6-(((4-fluorophenyl)(1-(2-(trifluoromethyl)phenyl)-1H-1,2,3-triazol-4-yl)methyl)amino)quinoline-3-carbonitrile] | 6.21 | 7.15
11 | N#Cc1cnc2c(Cl)cc(N[C@@H](c3ccc(F)cc3)c3cn(-c4ccccc4F)nn3)cc2c1Nc1cnc(F)c(F)c1 [Example 337, (S)-8-chloro-4-((5,6-difluoropyridin-3-yl)amino)-6-(((4-fluorophenyl) (1-(2-fluorophenyl)-1H-1,2,3-triazol-4-yl)methyl)amino)quinoline-3-carbonitrile] | 6.17 | 7.31
12 | [2H][C@](Nc1cc(Cl)c2ncc(C#N)c(Nc3cnc(F)c(Cl)c3)c2c1)(c1ccc(F)cc1)c1cn(C2CC2)nn1 [Example 338, (S)-8-chloro-4-((5-chloro-6-fluoropyridin-3-yl)amino)-6-(((1-cyclopropyl-1H-1,2,3-triazol-4-yl)(4-fluorophenyl)methyl-d)amino)quinoline-3-carbonitrile] | 6.74 | 8.10
13 | [2H][C@](Nc1cc(Cl)c2ncc(C#N)c(N[C@H](CC)c3ccccc3)c2c1)(c1cccc(C#N)c1)c1cn(C2CC2)nn1 [Example 340, 8-chloro-6-(((S)-(3-cyanophenyl)(1-cyclopropyl-1H-1,2,3-triazol-4-yl)methyl-d)amino)-4-(((R)-1-phenylpropyl)amino)quinoline-3-carbonitrile] | 7.24 | 8.70
14 | [2H][C@](Nc1cc(Cl)c2ncc(C#N)c(NCC(C)(C)C)c2c1)(c1cccc(C#N)c1)c1cn(C2CC2)nn1 [Example 341, (S)-8-chloro-6-(((3-cyanophenyl)(1-cyclopropyl-1H-1,2,3-triazol-4-yl)methyl-d)amino)-4-(neopentylamino)quinoline-3-carbonitrile] | 7.15 | 9.00
15 | [2H][C@](Nc1cc(Cl)c2ncc(C#N)c(Nc3cnc(F)c(F)c3)c2c1)(c1ccc(F)cc1)c1cn(Cc2ccccc2)nn1 [Example 342, (S)-6-(((1-benzyl-1H-1,2,3-triazol-4-yl)(4-fluorophenyl)methyl-d)amino)-8-chloro-4-((5,6-difluoropyridin-3-yl)amino)quinoline-3-carbonitrile] | 5.91 | 7.19
16 | [2H]C(Nc1cc(Cl)c2ncc(C#N)c(NCC(C)(C)C)c2c1)(c1ccc(F)cc1)c1cn(C2CC2)cn1 (stereo not drawn) [Example 344, 8-chloro-6-(((1-cyclopropyl-1H-imidazol-4-yl)(4-fluorophenyl)methyl-d)amino)-4-(neopentylamino) quinoline-3-carbonitrile] | 5.65 | 7.05

More lines, in order of rising pEC50 [1], values ahead:

Row | pEC50 [1] | pIC50 [2] | Compound
17 | 5.21 | 6.47 | N#Cc1cnc2c(Cl)cc(N[C@@H](c3ccc(F)cc3)c3cn(C4CC4)nn3)cc2c1NCc1cncs1 [Example 346, (S)-8-chloro-6-(((1-cyclopropyl-1H-1,2,3-triazol-4-yl)(4-fluorophenyl)methyl)amino)-4-((thiazol-5-ylmethyl)amino)quinoline-3-carbonitrile]
18 | 5.79 | 7.09 | N#Cc1cnc2c(Cl)cc(N[C@@H](c3ccc(F)cc3)c3cn(C4CC4)nn3)cc2c1NC(CF)c1ccccc1 (stereo partly drawn) [Example 323, 8-chloro-6-(((S)-(1-cyclopropyl-1H-1,2,3-triazol-4-yl)(4-fluorophenyl)methyl)amino)-4-((2-fluoro-1-phenylethyl)amino)quinoline-3-carbonitrile]
19 | 5.93 | 7.26 | [2H][C@](Nc1cc(Cl)c2ncc(C#N)c(Nc3cncc(F)c3)c2c1)(c1ccc(F)cc1)c1cn(C(C)C)nn1 [Example 339, (S)-8-chloro-6-(((4-fluorophenyl)(1-isopropyl-1H-1,2,3-triazol-4-yl)methyl-d)amino)-4-((5-fluoropyridin-3-yl)amino)quinoline-3-carbonitrile]
20 | 6.01 | 7.24 | CC(C)CNc1c(C#N)cnc2c(Cl)cc(N[C@@H](c3ccc(F)cc3)c3cn(C4CC4)nn3)cc12 [Example 345, (S)-8-chloro-6-(((1-cyclopropyl-1H-1,2,3-triazol-4-yl)(4-fluorophenyl)methyl)amino)-4-(isobutylamino)quinoline-3-carbonitrile]
21 | 6.09 | 7.49 | [2H][C@](Nc1cc(Cl)c2ncc(C#N)c(Nc3cnc(F)c(F)c3)c2c1)(c1ccc(F)cc1)c1cn(Cc2c(F)cccc2F)nn1 [Example 329, (S)-8-chloro-6-(((1-(2,6-difluorobenzyl)-1H-1,2,3-triazol-4-yl)(4-fluorophenyl)methyl-d)amino)-4-((5,6-difluoropyridin-3-yl)amino)quinoline-3-carbonitrile]
22 | 6.35 | 8.40 | [2H][C@](Nc1cc(Cl)c2ncc(C#N)c(NCC(C)(C)C)c2c1)(c1cccc(C#N)c1)c1c[nH]nn1 [Example 324, (S)-8-chloro-6-(((3-cyanophenyl)(1H-1,2,3-triazol-4-yl)methyl-d)amino)-4-(neopentylamino) quinoline-3-carbonitrile]
23 | 6.69 | 7.40 | [2H][C@](Nc1cc(Cl)c2ncc(C#N)c(NCC(C)(C)C)c2c1)(c1ccc(F)cc1)c1cn(-c2cccnc2)nn1 [Example 335, (S)-8-chloro-6-(((4-fluorophenyl)(1-(pyridin-3-yl)-1H-1,2,3-triazol-4-yl)methyl-d)amino)-4-(neopentylamino)quinoline-3-carbonitrile]
24 | 6.82 | 7.89 | [2H][C@@](Nc1cc(Cl)c2ncc(C#N)c(NCC(C)(C)C)c2c1)(c1cn(C2CC2)nn1)c1ccccc1Cl [Example 343, (S)-8-chloro-6-(((2-chlorophenyl)(1-cyclopropyl-1H-1,2,3-triazol-4-yl)methyl-d)amino)-4-(neopentylamino) quinoline-3-carbonitrile]
